Measurements published in patent publication US20240358625A1, “STABILIZATION OF MYCOSPORINE-LIKE AMINO ACIDS” (NAGASE & CO., LTD., priority 2021, published 2024).

Assays:
Format in all cases: physicochemical
[1] = Effect of 4-DG ratio on stabilizing MG and on coloring of the MG solution; settings: MG 0.1%, 4-DG ratio 1.5 to 11.1 parts by weight
Method: The effect of 4-DG on stabilizing MG was investigated. Solutions at pH 7 (in 0.1M phosphate buffer) containing various ratios of 4-DG to MG (0.1%) were prepared, and the amount of MG after standing at 60° C. for 57 days was measured. Then, the MG residual rate was determined. Additionally, the absorbance (400 nm) of the solution was measured over time during the experiment period.

[2] = Influence of pH on the stability of MG in solution and coloring of the MG solution
Method: Influence of pH on the stability of MG in a solution and the coloring of an MG solution were investigated. Adjustment of the solution to each pH was performed using 0.1 M phosphate buffer and phosphoric acid and NaOH as necessary. The MG concentration in the solution was 0.1%. MG solutions of each pH were prepared and left at 60° C. for 4 days, and then the amount of MG and the absorbance (400 nm) of the solutions were measured. The MG residual rate was determined by comparing with the amount at the start of the experiment.

[3] = Influence of bases constituting nucleic acids on the stability of MGA (residual rate); settings: 0.1% MGA, pH 7.5, 60° C. for 3 days; adenine 0.01%, guanine, cytosine, uracil, thymine 0.2%
Method: The influence of bases (adenine, guanine, cytosine, uracil, and thymine) constituting nucleic acids on the stability of MGA and MG was investigated. A 0.1% MGA solution (adjusted to pH 7.5 with 0.1M phosphate buffer) each containing adenine (0.01%), guanine (0.2%), cytosine (0.2%), uracil (0.2%), or thymine (0.2%) was prepared. A 0.1% MG solution (adjusted to pH 7.5 with 0.1M phosphate buffer) each containing adenine (0.01%), cytosine (0.2%), uracil (0.2%), or thymine (0.2%) was prepared. After these solutions were left at 60° C. for 3 days for MGA, 20 days and 49 days for MG, the amounts of MGA and MG were measured to determine the residual rate.

[4] = weakly acidic to weakly alkaline conditions, 60° C. for 4 days

Row | residual rate of MG ([1]; pH 7, 60° C. for 57 days) [%] | absorbance (400 nm) of the solution ([1]; pH 7, 60° C., 57th day) | MG residual rate ([2]; 0.1% MG, 0.1 M phosphate buffer, pH 5.4 to 8.8, 60° C. for 4 days) [%] | absorbance (400 nm) of the solution ([2]; 0.1% MG, pH 5.4 to 8.0, 60° C. for 4 days) | coloring of the MG solution [2, 4] | stability of MG [2, 4] | stabilizing effect on MGA [3] | SMILES
1 | ≥ 74 | ≤ 0.17 | ≥ 88 | ≤ 0.018 | suppressed | stabilized |  | COC1=C(NCC(=O)O)C[C@@](O)(CO)CC1=O [MG, mycosporine-glycine]
2 |  |  |  |  |  |  | confirmed | Nc1nc2nc[nH]c2c(=O)[nH]1 [guanine]
